In patent US20120245137A1 (Zalicus Pharmaceuticals Ltd., priority 2009, published 2012):
Read-outs that look alike come from different tables or passages of the source.

Legend:
mice [1] = details: mouse, in vivo
Description: (§2) In mice, the rotarod procedure (Dunham and Miya, J. Am. Pharmacol. Assoc. 46:208-209 (1957)) is used to disclose minimal muscular or neurological impairment (MMI). When a mouse is placed on a rod that rotates at a speed of 6 rpm, the animal can maintain its equilibrium for long periods of time. The animal is considered toxic if it falls off this rotating rod three times during a 1-min period.

[2] = target: N-type calcium channel subunits (α1B, α2δ, and β3a) (Homo sapiens, UniProt Q00975); assay: Block of Cav2.2 channel, whole cell voltage clamp, manual and PatchXpress; type: cell-based; details: Table 5; table follows Assay Example 3 (whole cell voltage clamp / PatchXpress); assay not given
N-type calcium channel subunits (α1B, α2δ, and β3a), sequence (Q00975 whole entry): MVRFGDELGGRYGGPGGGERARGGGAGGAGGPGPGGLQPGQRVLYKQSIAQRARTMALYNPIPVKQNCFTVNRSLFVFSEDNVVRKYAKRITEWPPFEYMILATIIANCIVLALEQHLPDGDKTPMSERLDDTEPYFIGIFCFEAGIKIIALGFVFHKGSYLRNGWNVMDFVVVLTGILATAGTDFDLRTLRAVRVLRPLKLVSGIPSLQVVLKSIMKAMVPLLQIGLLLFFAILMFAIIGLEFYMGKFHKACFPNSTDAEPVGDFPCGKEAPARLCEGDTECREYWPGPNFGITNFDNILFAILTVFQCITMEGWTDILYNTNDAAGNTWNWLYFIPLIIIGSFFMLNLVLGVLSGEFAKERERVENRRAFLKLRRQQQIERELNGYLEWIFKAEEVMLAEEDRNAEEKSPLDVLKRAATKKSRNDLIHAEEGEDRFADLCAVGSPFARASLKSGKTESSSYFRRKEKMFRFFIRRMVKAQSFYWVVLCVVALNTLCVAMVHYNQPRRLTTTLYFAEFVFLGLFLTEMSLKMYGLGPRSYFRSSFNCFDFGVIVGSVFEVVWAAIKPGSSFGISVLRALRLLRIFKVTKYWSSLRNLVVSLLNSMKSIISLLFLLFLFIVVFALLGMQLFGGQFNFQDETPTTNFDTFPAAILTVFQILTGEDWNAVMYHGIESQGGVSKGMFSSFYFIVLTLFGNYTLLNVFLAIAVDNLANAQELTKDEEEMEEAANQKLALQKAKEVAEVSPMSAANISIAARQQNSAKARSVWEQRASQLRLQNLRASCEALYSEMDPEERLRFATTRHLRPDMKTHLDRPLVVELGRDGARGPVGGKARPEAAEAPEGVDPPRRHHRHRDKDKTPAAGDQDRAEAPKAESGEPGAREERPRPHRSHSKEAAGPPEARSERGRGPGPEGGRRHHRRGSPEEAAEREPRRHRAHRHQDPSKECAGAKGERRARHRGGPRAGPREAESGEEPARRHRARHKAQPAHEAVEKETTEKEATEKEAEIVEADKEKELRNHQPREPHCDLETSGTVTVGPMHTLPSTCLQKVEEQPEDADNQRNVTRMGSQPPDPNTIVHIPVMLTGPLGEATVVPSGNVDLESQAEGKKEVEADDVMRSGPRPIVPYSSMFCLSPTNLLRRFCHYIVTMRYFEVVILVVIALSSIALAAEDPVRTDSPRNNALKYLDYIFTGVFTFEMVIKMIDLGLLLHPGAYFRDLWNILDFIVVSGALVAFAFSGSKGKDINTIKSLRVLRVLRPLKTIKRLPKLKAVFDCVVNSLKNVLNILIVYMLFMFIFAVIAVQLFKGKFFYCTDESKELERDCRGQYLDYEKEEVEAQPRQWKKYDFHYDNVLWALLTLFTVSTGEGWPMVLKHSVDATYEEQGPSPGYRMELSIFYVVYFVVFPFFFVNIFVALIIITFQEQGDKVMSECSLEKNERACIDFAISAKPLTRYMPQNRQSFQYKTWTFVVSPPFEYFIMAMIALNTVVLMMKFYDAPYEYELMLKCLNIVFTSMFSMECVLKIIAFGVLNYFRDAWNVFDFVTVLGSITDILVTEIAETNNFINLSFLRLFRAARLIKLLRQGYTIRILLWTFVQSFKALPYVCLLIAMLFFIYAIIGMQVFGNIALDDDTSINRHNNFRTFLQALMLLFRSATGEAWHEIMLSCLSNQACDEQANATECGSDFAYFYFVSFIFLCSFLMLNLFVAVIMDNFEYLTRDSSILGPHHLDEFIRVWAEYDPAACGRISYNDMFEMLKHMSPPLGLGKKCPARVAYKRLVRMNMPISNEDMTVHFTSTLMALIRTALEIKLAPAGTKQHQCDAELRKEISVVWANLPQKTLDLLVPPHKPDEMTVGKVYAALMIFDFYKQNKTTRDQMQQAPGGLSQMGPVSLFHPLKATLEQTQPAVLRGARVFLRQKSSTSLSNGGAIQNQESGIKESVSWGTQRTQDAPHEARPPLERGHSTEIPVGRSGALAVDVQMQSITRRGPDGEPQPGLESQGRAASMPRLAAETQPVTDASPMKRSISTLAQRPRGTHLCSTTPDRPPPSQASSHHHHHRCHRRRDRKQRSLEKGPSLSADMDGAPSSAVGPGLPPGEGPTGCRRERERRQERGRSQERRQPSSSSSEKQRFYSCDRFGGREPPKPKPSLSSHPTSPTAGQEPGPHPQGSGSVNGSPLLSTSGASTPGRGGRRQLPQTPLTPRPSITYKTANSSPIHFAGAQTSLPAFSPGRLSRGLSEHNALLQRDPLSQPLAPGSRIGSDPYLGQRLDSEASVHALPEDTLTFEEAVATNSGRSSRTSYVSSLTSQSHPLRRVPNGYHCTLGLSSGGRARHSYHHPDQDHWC
N-type calcium channel subunits (α1B, α2δ, and β3a), sequence (P54289 25-1103 partner): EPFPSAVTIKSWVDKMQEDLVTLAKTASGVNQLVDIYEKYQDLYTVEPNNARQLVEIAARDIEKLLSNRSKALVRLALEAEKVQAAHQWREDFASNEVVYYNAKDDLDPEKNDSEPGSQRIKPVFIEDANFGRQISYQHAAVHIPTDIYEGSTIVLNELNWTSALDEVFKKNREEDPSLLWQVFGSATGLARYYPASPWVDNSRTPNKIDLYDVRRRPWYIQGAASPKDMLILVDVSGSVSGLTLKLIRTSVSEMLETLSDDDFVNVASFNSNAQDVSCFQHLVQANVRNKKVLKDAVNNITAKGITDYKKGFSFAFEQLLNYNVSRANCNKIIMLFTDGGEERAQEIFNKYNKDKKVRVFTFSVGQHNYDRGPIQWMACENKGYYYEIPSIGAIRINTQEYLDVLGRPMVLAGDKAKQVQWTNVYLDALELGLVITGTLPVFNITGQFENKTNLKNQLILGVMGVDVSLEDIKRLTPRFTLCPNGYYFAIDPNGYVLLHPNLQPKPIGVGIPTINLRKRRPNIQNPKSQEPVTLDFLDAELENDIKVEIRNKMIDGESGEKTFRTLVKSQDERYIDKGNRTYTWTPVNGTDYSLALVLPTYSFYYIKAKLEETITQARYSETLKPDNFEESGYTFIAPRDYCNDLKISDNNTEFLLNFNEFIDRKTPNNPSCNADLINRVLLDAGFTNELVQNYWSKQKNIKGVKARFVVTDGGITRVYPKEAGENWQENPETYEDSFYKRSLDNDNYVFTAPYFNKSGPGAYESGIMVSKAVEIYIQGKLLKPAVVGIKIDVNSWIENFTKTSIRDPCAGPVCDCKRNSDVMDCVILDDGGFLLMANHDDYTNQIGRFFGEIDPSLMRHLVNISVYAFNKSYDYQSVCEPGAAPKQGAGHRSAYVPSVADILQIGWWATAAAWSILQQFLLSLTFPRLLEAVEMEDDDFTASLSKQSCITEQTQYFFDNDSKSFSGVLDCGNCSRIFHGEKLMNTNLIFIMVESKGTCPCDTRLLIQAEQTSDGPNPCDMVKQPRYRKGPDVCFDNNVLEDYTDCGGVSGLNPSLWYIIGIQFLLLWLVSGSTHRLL
N-type calcium channel subunits (α1B, α2δ, and β3a), sequence (P54284 whole entry partner): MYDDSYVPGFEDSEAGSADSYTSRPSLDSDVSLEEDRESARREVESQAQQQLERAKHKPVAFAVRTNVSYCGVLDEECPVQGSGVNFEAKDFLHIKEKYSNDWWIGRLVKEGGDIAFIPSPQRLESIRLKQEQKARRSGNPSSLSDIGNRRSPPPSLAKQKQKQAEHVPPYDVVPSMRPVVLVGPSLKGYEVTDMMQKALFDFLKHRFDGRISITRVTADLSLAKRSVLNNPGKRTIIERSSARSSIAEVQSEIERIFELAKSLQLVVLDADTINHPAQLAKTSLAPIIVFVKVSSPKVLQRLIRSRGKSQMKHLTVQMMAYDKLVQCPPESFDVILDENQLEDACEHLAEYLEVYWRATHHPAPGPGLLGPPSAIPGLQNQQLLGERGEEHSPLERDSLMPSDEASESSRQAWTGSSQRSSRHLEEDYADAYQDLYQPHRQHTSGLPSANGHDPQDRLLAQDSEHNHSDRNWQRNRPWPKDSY
Summary of the method: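 Percent block taken as current amplitude ratio with versus without compound, applied in rising doses; IC50 fitted where one cell received multiple doses. Protocol: 50 ms pulses to +20 mV at 0.067 Hz from […] or −90 mV holding; P/n leak subtraction, no junction-potential correction; manual and PatchXpress recordings.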

[3] = target: human α1G T-type channels (Homo sapiens, UniProt O43497); assay: T-type calcium channel block, whole cell patch clamp, α1G; type: cell-based; details: HEK cells stably expressing human α1G; mainly non-inactivated protocol; values above 10,000 nM represented as 10000
Summary of the method: (§1)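 Read-out: current block in whole-cell patch clamp of HEK 293 cells stably expressing human α1G or α1H subunits. Compounds were perfused locally in external solution (0.1-0.01% DMSO) under resting and inactivating voltage protocols.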

male CF1 mice = assay: 6 Hz psychomotor seizure model of partial epilepsy; type: in vivo; design: concentration or dose not given beside the values; details: 6 Hz 32 mA corneal stimulus
Description: Compounds can also be evaluated for the protection against seizures induced by a 6 Hz, 0.2 ms rectangular pulse width of 3 s duration, at a stimulus intensity of 32 mA (CC97) applied to the cornea of male CF1 mice (20-30 g) according to procedures described by Barton et al, “Pharmacological Characterization of the 6 Hz Psychomotor Seizure Model of Partial Epilepsy,” Epilepsy Res. 47(3):217-27 (2001). Seizures are characterised by the expression of one or more of the following behaviours: stun, forelimb clonus, twitching of the vibrissae and Straub-tail immediately following electrical stimulation.

mice [4] = assay: Mouse rotarod assay; details: rod at 6 rpm
Description: as §2

[5] = target: human α1H T-type channels (Homo sapiens, UniProt O95180); assay: T-type calcium channel block, whole cell patch clamp, α1H; type: cell-based; details: HEK cells stably expressing human α1H; mainly non-inactivated protocol; values above 10,000 nM represented as 10000
Summary of the method: as §1

Row | IC50 [3] [nM] | IC50 [5] [nM] | SMILES | EPILEPSY ROTAROD (% IMPAIRED) 0.25 hr (mice [1]) [%] | EPILEPSY ROTAROD (% IMPAIRED) 0.5 hr (mice [1]) [%] | EPILEPSY ROTAROD (% IMPAIRED) 1 hr (mice [1]) [%] | EPILEPSY ROTAROD (% IMPAIRED) 2 hr (mice [1]) [%] | EPILEPSY ROTAROD (% IMPAIRED) 4 hr (mice [1]) [%] | IC50 [2] [nM] | Epilepsy 6 Hz (% protected) 0.25 hr (male CF1 mice) [%] | Epilepsy 6 Hz (% protected) 0.5 hr (male CF1 mice) [%] | Epilepsy 6 Hz (% protected) 1 hr (male CF1 mice) [%] | Epilepsy 6 Hz (% protected) 2 hr (male CF1 mice) [%] | Epilepsy 6 Hz (% protected) 4 hr (male CF1 mice) [%] | EPILEPSY ROTAROD (% IMPAIRED) 0.25 hr (mice [4]) [%] | EPILEPSY ROTAROD (% IMPAIRED) 0.5 hr (mice [4]) [%] | EPILEPSY ROTAROD (% IMPAIRED) 1 hr (mice [4]) [%] | EPILEPSY ROTAROD (% IMPAIRED) 2 hr (mice [4]) [%] | EPILEPSY ROTAROD (% IMPAIRED) 4 hr (mice [4]) [%]
1 | > 10000 | > 10000 | O=C(NC1CCC(F)(S(=O)(=O)c2cccc(C(F)(F)F)c2)CC1)c1nocc1C1CC1 [Compound 272, 4-cyclopropyl-N-((1S,4S)-4-fluoro-4-(3-(trifluoromethyl)phenylsulfonyl)cyclohexyl) isoxazole-3-carboxamide] |  |  |  |  |  | 430 | 0 | 0 | 0 | 0 | 0 | 0 | 0 | 0 | 0 | 0
2 |  |  | O=C(NC1CCC(F)(S(=O)(=O)c2cccc(C(F)(F)F)c2)CC1)[C@@H]1C[C@@H](c2ccccc2)CN1 (stereo partly drawn) [Compound 285, (2S,4S)-N-((1S,4R)-4-fluoro-4-(3-(trifluoromethyl)phenylsulfonyl)cyclohexyl)-4-phenylpyrrolidine-2-carboxamide] |  |  |  |  |  |  | 0 | 100 | 100 | 100 | 0 | 100 | 100 | 100 | 100 | 0
3 | 9510 | 3170 | CS(=O)(=O)c1cc(C(F)(F)F)ccc1C(=O)NCC1CC(S(=O)(=O)c2cccc(C(F)(F)F)c2)C1 [Compound 356, 2-(methylsulfonyl)-4-(trifluoromethyl)-N-(((1R,3R)-3-(3-(trifluoromethyl)phenylsulfonyl)cyclobutyl)methyl)benzamide] | 0 | 0 | 0 | 0 | 0 | 570 | 25 | 0 | 0 | 0 | 0 |  |  |  |  | 
4 | 6480 | 2190 | CS(=O)(=O)c1nc(C(F)(F)F)ccc1C(=O)NCC1CC(S(=O)(=O)c2cccc(C(F)(F)F)c2)C1 [Compound 365, 2-(methylsulfonyl)-6-(trifluoromethyl)-N-(((1R,3R)-3-(3-(trifluoromethyl)phenylsulfonyl)cyclobutyl)methyl)nicotinamide] |  |  |  |  |  | 1610 | 25 | 50 | 50 | 25 | 25 | 0 | 0 | 0 | 0 | 0
5 |  |  | O=C(NCC1CC(S(=O)(=O)c2cc(F)cc(C(F)(F)F)c2)C1)c1cc(F)cc(Cl)c1 [Compound 396, 3-chloro-5-fluoro-N-(((1R,3R)-3-(3-fluoro-5-(trifluoromethyl)phenylsulfonyl)cyclobutyl)methyl)benzamide] | 0 | 0 | 0 | 0 | 0 | 940 | 50 | 0 | 0 | 25 | 0 |  |  |  |  | 
6 |  |  | CC(C)(C1CC(NC(=O)c2cn3cc(C(F)(F)F)ccc3n2)C1)S(=O)(=O)c1cccc(C(F)(F)F)c1 [Compound 438, 6-(trifluoromethyl)-N-((1R,3R)-3-(2-(3-(trifluoromethyl)phenylsulfonyl)propan-2-yl)cyclobutyl)imidazo[1,2-a]pyridine-2-carboxamide] | 0 | 0 | 0 | 0 | 0 | 400 | 75 | 0 | 0 | 25 | 0 |  |  |  |  | 
7 |  |  | O=S(=O)(c1cccc(C(F)(F)F)c1)C1CC(c2c[nH]c(C(F)(F)F)n2)C1 [Compound 442, 2-(trifluoromethyl)-4-((1R,3R)-3-(3-(trifluoromethyl)phenylsulfonyl)cyclobutyl)-1H-imidazole] | 0 | 0 | 0 | 0 | 0 | 2840 | 50 | 25 | 75 | 0 | 0 |  |  |  |  | 
8 |  |  | CC(C)([C@H]1C[C@@H](NC(=O)c2ccc(C(F)(F)F)cc2S(C)(=O)=O)C1)S(=O)(=O)c1cccc(C(F)(F)F)c1 [Compound 542] |  |  |  |  |  |  | 0 | 0 | 0 | 0 | 0 | 0 | 0 | 0 | 0 | 0
9 |  |  | CC(C)([C@H]1C[C@@H](NC(=O)c2cc(C(F)(F)F)n[nH]2)C1)S(=O)(=O)c1cccc(C(F)(F)F)c1 [Compound 543] |  |  |  |  |  |  | 0 | 0 | 0 | 0 | 0 | 0 | 0 | 0 | 0 | 0
10 |  |  | CC(C)([C@H]1C[C@@H](NC(=O)c2cc(C(F)(F)F)ccn2)C1)S(=O)(=O)c1cccc(C(F)(F)F)c1 [Compound 551] |  |  |  |  |  |  | 25 | 0 | 0 | 0 | 0 | 0 | 0 | 0 | 0 | 0

Row | SMILES | IC50 [3] [nM] | IC50 [5] [nM] | EPILEPSY ROTAROD (% IMPAIRED) 0.25 hr (mice [1]) [%] | EPILEPSY ROTAROD (% IMPAIRED) 0.5 hr (mice [1]) [%] | EPILEPSY ROTAROD (% IMPAIRED) 1 hr (mice [1]) [%] | EPILEPSY ROTAROD (% IMPAIRED) 2 hr (mice [1]) [%] | EPILEPSY ROTAROD (% IMPAIRED) 4 hr (mice [1]) [%] | IC50 [2] [nM] | Epilepsy 6 Hz (% protected) 0.25 hr (male CF1 mice) [%] | Epilepsy 6 Hz (% protected) 0.5 hr (male CF1 mice) [%] | Epilepsy 6 Hz (% protected) 1 hr (male CF1 mice) [%] | Epilepsy 6 Hz (% protected) 2 hr (male CF1 mice) [%] | Epilepsy 6 Hz (% protected) 4 hr (male CF1 mice) [%] | EPILEPSY ROTAROD (% IMPAIRED) 0.25 hr (mice [4]) [%] | EPILEPSY ROTAROD (% IMPAIRED) 0.5 hr (mice [4]) [%] | EPILEPSY ROTAROD (% IMPAIRED) 1 hr (mice [4]) [%] | EPILEPSY ROTAROD (% IMPAIRED) 2 hr (mice [4]) [%] | EPILEPSY ROTAROD (% IMPAIRED) 4 hr (mice [4]) [%]
11 | O=C(NCC1(O)CCC(S(=O)(=O)c2cccc(C(F)(F)F)c2)CC1)c1ccc(F)c(Cl)c1 [Compound 230, 3-chloro-4-fluoro-N-(((1S,4S)-1-hydroxy-4-(3-(trifluoromethyl)phenylsulfonyl)cyclohexyl)methyl)benzamide] | 1180 |  | 0 | 0 | 0 | 0 | 0 | 790 | 0 | 25 | 25 | 100 | 0 |  |  |  |  | 
12 | CC(C)S(=O)(=O)c1cc(C(F)(F)F)cnc1C(=O)NC[C@H]1C[C@H](S(=O)(=O)c2cccc(C(F)(F)F)c2)C1 [Compound 374, 3-(isopropylsulfonyl)-5-(trifluoromethyl)-N-(((1R,3R)-3-(3-(trifluoromethyl)phenylsulfonyl)cyclobutyl)methyl)picolinamide] | 7730 | 2110 |  |  |  |  |  | 250 | 0 | 0 | 0 | 0 | 0 | 0 | 0 | 0 | 0 | 0
